The source of these data is patent US20050107394A1, “Novel use of selective pde5 inhibitors” (priority 2001, published 2005).

For the data set, the system named is rabbits. The data set is described as follows: Lung damage after inhaled bleomycin (characterisation of the model). The format is in vivo, rabbit. The source says: Healthy rabbits of both sexes were pretreated orally with a gyrase inhibitor (Baytril®) for one week. Ten animals pretreated in this way were not treated with bleomyin and served as control, and, on the day of exposure, the others were anaesthetized with a Ketanest®/Rompun® mixture, intubated intratracheally and ventilated mechanically. An ultrasonic nebulizer (MMAD 2.5 μm) was used to administer by inhalation exactly 1.8 U/kg of bodyweight of bleomycin under volume-controlled ventilation. After 4, 8, 16, 24, 32 and 64 days (in each case n≧5) post exposure, the animals were again anaesthetized, provided with an arterial access (right carotid artery) and underwent bodyweight-adapted ventilation via a tracheostomy in a volume-controlled method. The arterial pO2 and pCO2, and the static compliance of the lung were measured (by recording the intrathoracic pressure and with slow inflation/deflation manoeuvres). Subsequently, the lungs of these animals were dissected and perfused with a Krebs Hensefeit buffer. Under these conditions, the capillary filtraton coefficient (cfc) was then found from the weight gain of the organ after increasing the pulmonary venous pressure by 7.5 mmHg, and the peak ventilation pressure was found. After completion of these measurements, the left main bronchus was ligated in the end-inspiratory position and a bronchoalveolar lavage (BAL) was performed on the right lung. Subsequently, the large vessels and airways of the right lung were dissected off and the organ was homogenized. The left lung was perfusion-fixed with 4% formalin solution while maintaining a pressure gradient of 25 cm H2O and was then stored in 4% formalin until embedded. Firstly, the cells were removed from the BAL, counted and differentiated via a Papenheim stain. The cell-free BAL supernatant was then aliquoted and submitted to further analysis of the surfactant and coagulation properties and a determination of the matrix metallo proteinases (MMPs) and their inhibitors (TIMPs) and of soluble collagen. Bronchoalveolar deposition of 1.8 U/kg of bodyweight of bleomycin led initially to development of an ARDS-like event, with a massive restriction of gas exchange (paO2/FiO2 of >500 mmHg in the controls reduced to ˜110 mmHg on day 4), ground-glass opacities over all sections of the lung in the HRCT and an increase of about 5-fold in the capillary filtration coefficient (cfc). In the later phase of bleomycin-induced lung damage there was then development of pronounced fibrosis which could be confirmed on the basis of the increase in soluble collagen in the BAL and the hydroxyproline in the tissue, on the basis of the histological specimens and of the HRCT findings. […] Consistent with this, a pronounced increase in the extracellular matrix and an alveolar and also interstitial ingress of fibroblasts was observable in the histological sections. Besides the homogeneously distributed zones of fibrosis there were also thin hyperdistended sections of lung with a honeycomb appearance.

In the case of bleomycin, the “concentration of soluble collagen in the BAL” value (after 64 days) stood at 7000 ± 2200 ng/mL. Where the note is “day 4 after 1.8 U/kg bleomycin by inhalation, controls >500 mmHg”, this substance gave a paO2/FiO2 of around 110 mmHg. The “concentration of soluble collagen in the BAL (maximum)” value (day 16 after bleomycin, controls 1.1±0.4) turned out to be 38300 ± 12500 ng/mL. In addition, where the note is “early phase after 1.8 U/kg bleomycin”, the “capillary filtration coefficient (cfc), increase” value was “about 5 fold”. Also, the “hydroxyproline content of the tissue” value (from day 16 onwards) is “approximately doubled”.
